# Source: EPA's ToxValDB 9.5 (doi:10.2903/j.efsa.2010.1786)
# Experiments:
# [1] = tested on: Anas platyrhynchos; details: for LC50: short-term, oral, feed, mortality
# [2] = tested on: Colinus virginianus; details: acute; oral; diet; mortality
# [3] = tested on: Chalcophaps sp.; details: acute; oral; unspecified; mortality
# [4] = tested on: Canidae; details: oral, Dog Other
# [5] = tested on: Encarsia formosa; details: not reported; mortality
# [6] = tested on: Tagia sp.
# [7] = tested on: Oncorhynchus mykiss; details: acute; duration: 96 hours; mortality
# [8] = tested on: Pimephales promelas; details: chronic/long-term; duration: 31 days; growth
# [9] = tested on: Rattus norvegicus
# [10] = tested on: Lepomis macrochirus; details: acute; duration: 96 hours; mortality
# [11] = tested on: Apis mellifera; details: acute; duration: 48 hours; dermal; mortality
# [12] = tested on: Daphnia magna; details: chronic/long-term; duration: 21 days; reproduction
# [13] = tested on: Coturnix japonica
# [14] = tested on: Phasianus sp.; details: acute; oral; unspecified; mortality
# [15] = tested on: Perdix sp.; details: acute; oral; unspecified; mortality
compound,measurement,setting,value
CCCCc1c(C)nc(NCC)nc1OS(=O)(=O)N(C)C [Bupirimate],LC50,[1],> 2090 mg/kg-day
same,LC50,[2],> 2580 mg/kg-day
same,LD50,[3],> 2750 mg/kg-day
same,NOAEL,"[4]; chronic, duration: 2 years",5 mg/kg-day
same,NOAEL,"[4]; subchronic, duration: 90 days",15 mg/kg-day
same,LEL,[5],750 g/ha
same,LC50,"[6]; acute, duration: 14 days, mortality",> 1000 mg/kg
same,NOEC,[6]; chronic/long-term,7.3 mg/kg
same,LC50,[7],1 µg/mL
same,NOEC,[8],0.1 mg/L
same,LD50,"[9]; acute, oral, mortality",4000 mg/kg-day
same,LC50,[10],1 µg/mL
same,LD50,[11],> 50 µg/piece
same,NOEC,[12],0.56 mg/L
same,LD50,"[13]; acute, oral, mortality",> 5000 mg/kg-day
same,NOEC,[13]; reproduction developmental,≥ 98 mg/kg-day
CCCCc1c(C)nc(NCC)[nH]c1=O [Ethirimol],NOEC,[1]; reproductive,58 mg/kg-day
same,LC50,[1],> 1960 mg/kg-day
same,LD50,[14],> 3000 mg/kg-day
same,LC50,[2],> 3380 mg/kg-day
same,LD50,[15],> 3000 mg/kg-day
same,NOAEL,"[9]; acute, neurology",4000 mg/kg-day
same,NOAEL,"[9]; chronic, duration: 2 years, clinical signs",3.5 mg/kg-day
same,NOEL,"[9]; chronic, mortality",500 mg/kg-day
same,NOAEL,"[9]; reproduction developmental, body weight",5 mg/kg-day
